Reference: patent US5496947A, “Quinolone carboxylic acid derivatives” (Dong Wha Pharmaceutical Industrial Co., Ltd., priority 1994, dated 1996)
Read-outs that look alike come from different tables or passages of the source.

Experiments:
Enterobacter cloacae = experiment: MIC, 2-fold dilution method in micro-well plate, E. cloacae; type: cell-based; settings: read-out: Minimum Inhibitory Concentration
[1] = system: Pseudomonas aeruginosa ATCC 27853; experiment: MIC, 2-fold dilution method in micro-well plate, P. aeruginosa; type: cell-based; settings: P. aerugirnosa ATCC27853, 37° C., read-out: Minimum Inhibitory Concentration
Method in brief: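 MIC was recorded after 37° C incubation of bacteria with serial two-fold dilutions of compound. Bacteria came from an overnight 37° C BHI culture; the final inoculum was about (10^5-10^6)/2 cfu/ml. Compounds were tested as hydrochloride salts diluted in sterile water from a 10 mg/ml stock.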

[2] = system: Enterobacter aerogenes ATCC 13048; experiment: MIC, 2-fold dilution method in micro-well plate, E. aerogenes; type: cell-based; settings: Klebsiella aerogenes
Method in brief: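 Two-fold broth microdilution of hydrochloride salts dissolved in sterile water (10 mg/ml stock). Inoculum from overnight BHI culture at 37° C, about (10^5–10^6)/2 cfu/ml final in well. MIC read after incubation at 37° C.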

[3] = system: Streptococcus pneumoniae ATCC 6303; experiment: MIC, 2-fold dilution method in micro-well plate, S. pneumoniae; type: cell-based; settings: S. pneuinoniae ATCC6303, 37° C., read-out: Minimum Inhibitory Concentration
Method in brief: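 MIC by 2-fold serial microdilution of compounds as hydrochloride salts in water, against a BHI-grown overnight culture. Final inoculum was about (10^5–10^6)/2 cfu/ml. Plates were incubated at 37° C before the minimum inhibitory concentration was read.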

[4] = system: Shigella sonnei ATCC 25931; experiment: MIC, 2-fold dilution method in micro-well plate, S. sonnei; type: cell-based; settings: S. sonnei ATCC25931, 37° C., read-out: Minimum Inhibitory Concentration
Method in brief: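 Broth microdilution with 2-fold serial dilutions of compounds as hydrochloride salts in water. Overnight BHI culture of S. sonnei at 37° C added to give about (10^5-10^6)/2 cfu/ml per well. MIC read after incubation at 37° C.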

[5] = system: Escherichia coli ATCC 25922; experiment: MIC, 2-fold dilution method in micro-well plate, E. coli; type: cell-based
Method in brief: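 Broth two-fold microdilution of hydrochloride salts in water against E. coli ATCC 25922 grown overnight in BHI at 37° C. Final inoculum about (10^5 -10^6)/2 cfu/ml; after incubation at 37° C, MIC was recorded.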

[6] = system: Citrobacter freundii ATCC 8090; experiment: MIC, 2-fold dilution method in micro-well plate, C. freundii; type: cell-based
Method in brief: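 Broth 2-fold microdilution; compounds tested as hydrochloride salts in sterile water. Inoculum from overnight BHI broth culture at 37° C., final about (10^5-10^6)/2 cfu/ml per well; MIC read after incubation at 37° C.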

[7] = system: Streptococcus pyrogens ATCC 19615; experiment: MIC, 2-fold dilution method in micro-well plate, S. pyrogens; type: cell-based; settings: S. pyrogenes ATCC19615, 37° C., read-out: Minimum Inhibitory Concentration
Method in brief: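 Inoculum from overnight 37° C brain-heart infusion culture gave roughly (10^5-10^6)/2 cfu/mL per well against two-fold serial dilutions of hydrochloride-salt compound in water. Lowest concentration inhibiting growth after 37° C incubation taken as MIC.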

[8] = system: Acinetobacter calcoaceticus; experiment: MIC, 2-fold dilution method in micro-well plate, A. calcoaceticus; type: cell-based
[9] = system: Haemophilus influenza ATCC 35056; experiment: MIC, 2-fold dilution method in micro-well plate, H. influenzae; type: cell-based; settings: H. influenzae ATCC35056, 37° C.; read-out: Minimum Inhibitory Concentration
Method in brief: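 MIC by 2-fold broth microdilution; compounds as hydrochloride salts in sterile water (10 mg/ml stock). Overnight BHI culture inoculated at about (10^5-10^6)/2 cfu/ml final; MIC read after cultivation at 37° C.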

[10] = system: Streptococcus faecalis ATCC 29212; experiment: MIC, 2-fold dilution method in micro-well plate, S. faecalis ATCC 29212; type: cell-based; settings: Enterococcus faecalis; S. faecalis ATCC29212, 37° C.; read-out: Minimum Inhibitory Concentration
Method in brief: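 Compounds were tested as hydrochloride salts by 2-fold serial dilution in water in micro-well plates. Final inoculum was about (10^5-10^6)/2 cfu/ml from overnight BHI broth culture. MIC was read after culture at 37° C.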

[11] = system: Shigella flexneri ATCC 12022; experiment: MIC, 2-fold dilution method in micro-well plate, S. flexneri; type: cell-based; settings: S. flexneri ATCC12022, 37° C., read-out: Minimum Inhibitory Concentration
Method in brief: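 Two-fold broth dilution in microwell plates; compounds as hydrochloride salts in sterile water. Overnight BHI-broth culture at 37 °C used as inoculum, giving about (10^5–10^6)/2 cfu/ml per well. MIC read after cultivation at 37 °C.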

[12] = Pharmacokinetic properties in ICR mouse, oral and subcutaneous, Bio-Assay (Agar well method); type: in vivo; settings: 40 mg/kg, average of four tests; for AUC / Cmax / Tmax / bioavailability / half-life: blood; for dose excreted: urine, read-out: Urine Recovery
Protocol: The pharmacokinetic properties are tested by orally administrating and subcutaneously injecting a test compound and a substance for control to a ICR Mouse with 22 g±10% weight, drawing blood after 10, 20, 30, 45, 60, 90, 120, 150, 180 and […] and analyzed by Bio-Assay (Agar well method).

[13] = system: Serratia marcescens ATCC 8100; experiment: MIC, 2-fold dilution method in micro-well plate, S. marcescens; type: cell-based
Method in brief: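 Broth microdilution (2-fold series) of hydrochloride salts in water; S. marcescens from overnight BHI culture at 37 °C inoculated to about (10^5-10^6)/2 cfu/ml. MIC read after cultivation at 37 °C.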

[14] = system: Streptococcus faecalis ATCC 19433; experiment: MIC, 2-fold dilution method in micro-well plate, S. faecalis ATCC 19433; type: cell-based; settings: Enterococcus faecalis; S. faecalis ATCC19433, 37° C.; read-out: Minimum Inhibitory Concentration
Method in brief: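 Broth microdilution (2-fold series) with test compounds as hydrochloride salts in sterile water; overnight BHI culture at 37 °C inoculated to about (10^5-10^6)/2 cfu/ml per well. MIC read after incubation at 37 °C.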

[15] = system: Klebsiella pneumoniae ATCC 13883; experiment: MIC, 2-fold dilution method in micro-well plate, K. pneumoniae; type: cell-based
Method in brief: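 Two-fold broth dilution in micro-wells of compound as hydrochloride salt in water. Overnight BHI culture at 37 °C inoculated to about (10^5–10^6)/2 cfu/ml final. MIC read after incubation at 37 °C.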

[16] = system: Proteus vulgaris ATCC 13315; experiment: MIC, 2-fold dilution method in micro-well plate, P. vulgaris; type: cell-based
Method in brief: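 Two-fold broth dilution in micro-well plates; compounds tested as hydrochloride salts in water. Bacteria from overnight BHI broth culture at 37 °C inoculated to about (10^5–10^6)/2 cfu/ml final; MIC read after incubation at 37 °C.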

[17] = system: Salmonella typhimurium ATCC 14028; experiment: MIC, 2-fold dilution method in micro-well plate, S. typhimurium; type: cell-based; settings: Salmonella enterica, read-out: Minimum Inhibitory Concentration
Method in brief: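 Twofold broth microdilution with overnight BHI culture at 37 °C; inoculum about (10^5-10^6)/2 cfu/ml in wells. Compounds tested as hydrochloride salts from 10 mg/ml aqueous stock; MIC read after incubation at 37 °C.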

[18] = ATCC13048, read-out: Minimum Inhibitory Concentration
[19] = E. coli ATCC25922, 37° C., read-out: Minimum Inhibitory Concentration
[20] = C. freundii ATCC8090, 37° C., read-out: Minimum Inhibitory Concentration
[21] = A. calcoaceticus ATCC8090 (as in tables), 37° C., read-out: Minimum Inhibitory Concentration
[22] = ATCC8100, read-out: Minimum Inhibitory Concentration
[23] = K. pneumoniae ATCC13883, 37° C., read-out: Minimum Inhibitory Concentration
[24] = P. vulgaris ATCC13315, 37° C., read-out: Minimum Inhibitory Concentration
[25] = ATCC8090, read-out: Minimum Inhibitory Concentration
[26] = ATCC13883, read-out: Minimum Inhibitory Concentration
[27] = E. cloacae ATCC23355 (as in tables), 37° C.
[28] = E. aerogenes ATCC13048, 37° C., read-out: Minimum Inhibitory Concentration
[29] = S. marcescens ATCC8100, 37° C., read-out: Minimum Inhibitory Concentration

Row | SMILES | MIC [1] [µg/mL] | MIC [2, 18] [µg/mL] | MIC [3] [µg/mL] | MIC [4] [µg/mL] | MIC [5, 19] [µg/mL] | MIC [6, 20] [µg/mL] | MIC [7] [µg/mL] | MIC [8, 21] [µg/mL] | MIC [9] [µg/mL] | MIC [10] [µg/mL] | MIC [11] [µg/mL] | AUC ([12]; sc, S.C) [ng·h/mL] | Cmax ([12]; sc, S.C) [ng/mL] | Tmax ([12]; sc, S.C) [h] | half-life ([12]; sc, S.C) [h] | dose excreted ([12]; po, P.O) [%] | dose excreted ([12]; sc, S.C) [%] | MIC [14] [µg/mL] | MIC [16, 24] [µg/mL] | MIC [17] [µg/mL] | other results
1 | CC1CN(c2cc3c(cc2F)c(=O)c(C(=O)O)cn3-c2ccc(F)cn2)CCN1.Cl (stereo not shown) [Example 19, 1-(5-fluoro-2-pyridyl)-6-fluoro-7-(3-methyl-1-piperazinyl)-1,4-dihydro-4-oxoquinoline-3-carboxylic acid hydrochloride] | 0.625 | 0.625 | 5 | 0.313 | 0.078 | 1.25 | 10 | 1.25 | 0.625 | 5 | 0.313 | 23300 | 5110 | 0.87 | 5.32 | 29 | 48.7 | 5 | 0.156 | 0.313 | MIC (Enterobacter cloacae): 0.625 µg/mL; AUC ([12]; po, P.O): 16900 ng·h/mL; Cmax ([12]; po, P.O): 3110 ng/mL; Tmax ([12]; po, P.O): 0.87 h; bioavailability ([12]; po, P.O): 72.7%; half-life ([12]; po, P.O): 8.42 h; MIC [13, 22]: 0.625 µg/mL; MIC [15, 23]: 1.25 µg/mL
2 | Cc1c(F)c(N2CCN(C)CC2)cc2c1c(=O)c(C(=O)O)cn2-c1ccc(F)cn1.Cl [Example 28, 5-methyl-7-(4-methyl-1-piperazinyl)-1-(5-fluoro-2-pyridyl)-6-fluoro-1,4-dihydro-4-oxoquinoline-3-carboxylic acid hydrochloride] | 1.25 | 0.625 | 10 | 1.25 |  | 2.5 | 10 |  | 0.313 | 5 | 0.625 | 76100 | 6940 | 1 | 7.26 | 25.2 | 13.4 | 10 |  | 1.25 | MIC (Enterobacter cloacae): 0.625 µg/mL; MIC ([5]; ATCC25922, read-out: Minimum Inhibitory Concentration): 1.25 µg/mL; MIC [8, 25]: 1.25 µg/mL; AUC ([12]; po, P.O): 62400 ng·h/mL; Cmax ([12]; po, P.O): 6360 ng/mL; Tmax ([12]; po, P.O): 0.87 h; bioavailability ([12]; po, P.O): 81.3%; half-life ([12]; po, P.O): 7.57 h; MIC [13, 22]: 1.25 µg/mL; MIC [15, 26]: 1.25 µg/mL; MIC ([16]; ATCC13315, read-out: Minimum Inhibitory Concentration): 0.625 µg/mL
3 | Cc1c(F)c(N2CCNC(C)C2)cc2c1c(=O)c(C(=O)O)cn2-c1ccc(F)cn1.Cl (stereo not shown) [Example 29, 5-methyl-7-(3-methyl-1-piperazinyl)-1-(5-fluoro-2-pyridyl)-6-fluoro-1,4-dihydro-4-oxoquinoline-3-carboxylic acid hydrochloride] | 1.25 |  | 10 | 0.625 | 1.25 |  | 10 |  | 0.625 | 5 | 0.625 | 32600 | 8340 | 1.25 | 2.31 | 9.35 | 12.8 | 5 | 1.25 | 0.625 | MIC (Enterobacter cloacae; [27]): 0.313 µg/mL; MIC [2, 28]: 0.313 µg/mL; MIC [6, 25]: 0.625 µg/mL; MIC [8, 25]: 0.625 µg/mL; MIC [13, 29]: 1.25 µg/mL; MIC [15, 23]: 1.25 µg/mL
4 | CC1CN(c2nc3c(cc2F)c(=O)c(C(=O)O)cn3-c2ccc(F)cn2)CCN1.Cl (stereo not shown) [Example 14, 1-(5-fluoro-2-pyridyl)-6-fluoro-7-(3-methyl-1-piperazinyl)-1,4-dihydro-4-oxo-1,8-naphthyridine-3-carboxylic acid hydrochloride] | 1.25 | 1.25 | 5 | 0.078 | 0.313 | 0.625 | 10 | 0.625 | 1.25 | 2.5 | 0.156 | 28100 | 4280 | 0.6 | 7.28 | 58.9 | 21.1 | 5 | 0.625 | 1.25 | MIC (Enterobacter cloacae; [27]): 0.625 µg/mL; AUC ([12]; po, P.O): 12500 ng·h/mL; Cmax ([12]; po, P.O): 2120 ng/mL; Tmax ([12]; po, P.O): 0.87 h; bioavailability ([12]; po, P.O): 44%; half-life ([12]; po, P.O): 3.81 h; MIC [13, 29]: 0.313 µg/mL; MIC [15, 26]: 1.25 µg/mL
5 | Cl.N[C@H]1CCN(c2cc3c(cc2F)c(=O)c(C(=O)O)cn3-c2ccc(F)cn2)C1 [Example 22, 1-(5-fluoro-2-pyridyl)-6-fluoro-7-[(3S)-3-amino-1-pyrrolidinyl]-1,4-dihydro-4-oxoquinoline-3-carboxylic acid hydrochloride] | 0.156 |  | 1.25 | 0.039 | 0.039 | 0.039 | 2.5 | 0.313 | 0.078 | 1.25 | 0.156 |  |  |  |  |  |  | 0.625 | 0.078 |  | MIC (Enterobacter cloacae; [27]): 0.078 µg/mL; MIC [2, 28]: 0.078 µg/mL; MIC [13, 29]: 0.078 µg/mL; MIC [15, 23]: 0.039 µg/mL; MIC ([17]; S. typhisurium ATCC14028, 37° C.): 0.078 µg/mL
